# In ChEMBL document CHEMBL1143650, “Synthesis of desthio prenylcysteine analogs: sulfur is important for biological activity” (Bioorg Med Chem Lett, 2005):
# How the values were obtained:
# [1] = biological target: T1, Protein-S-isoprenylcysteine O-methyltransferase (Saccharomyces cerevisiae S288c, UniProt P32584); assay: Inhibitory concentration against isoprenyl-cysteine carboxyl methyltransferase
# T1 sequence (P32584 whole entry): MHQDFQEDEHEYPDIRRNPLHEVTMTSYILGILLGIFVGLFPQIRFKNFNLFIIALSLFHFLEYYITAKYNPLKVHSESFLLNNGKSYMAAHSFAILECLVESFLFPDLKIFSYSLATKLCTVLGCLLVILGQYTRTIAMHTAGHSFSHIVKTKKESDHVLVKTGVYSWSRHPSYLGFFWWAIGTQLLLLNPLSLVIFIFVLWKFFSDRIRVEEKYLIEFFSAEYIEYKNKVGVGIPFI
# [2] = biological target: T1, Protein-S-isoprenylcysteine O-methyltransferase; assay: Inhibitory concentration against isoprenyl-cysteine carboxyl methyltransferase by Casey method; Range 7 - 14 uM
Structure (SMILES),IC50 [1],Ki [1],IC50 [2]
CC(=O)N[C@@H](CSC/C=C(\CC=C(C)C)CC/C=C(\C)CCC=C(C)C)C(=O)O,44 µM,17.1 µM,14 µM
CC(=O)NC(C[S+]([O-])C/C=C(\C)CC/C=C(\C)CC/C=C(\C)CCC=C(C)C)C(=O)O (stereo not given),,13.2 µM,
CC(C)=CCC/C(C)=C/CC/C(C)=C/CSCC(=O)O [FARNESYLTHIOACETIC ACID],,4.6 µM,
